Assay results: patent publication US20240309319A1, “COMPOSITIONS AND METHODS FOR THE GENERATION OF NEURONS AND USES THEREOF” (Washington University, priority 2021, published 2024)

System: cortical markers TBR1, MEF2C, BRN2, NEUROD2
Assay: qPCR of cortical markers in miNs versus starting fibroblasts
Type: cell-based, human
Details: combination of MYT1L and ISX9 with miR-9/9*-124, day 30 miNs, ISX9 10 uM on PID 3, 6, 10, 14
Method: Direct Neuronal Reprogramming: Human fibroblasts were directly reprogrammed to miNs as previously described with modifications. Briefly, fibroblasts were transduced with supernatant lentivirus mix comprised of dox-inducible miR-9/9*-124, rtTA, and the transcription factor MYT1L. From PID1 to PID14 cells were treated with DAPT (2 uM) to increase neurite outgrowth and neuronal differentiation, and on PID 3, 6, 10, and 14, cells were also treated with the NEUROD1-activator ISX9 (10 uM) to push cortical fate. Fibroblasts and reprogramming cells were cultured in DMEM+10% FBS through replating at PID5. On PID6, cells were switched to Neurobasal-A with B27+(1000×) and Glutamax (500×), containing 1 μg/mL doxycycline, 200 μM dibutyl cyclic AMP, 1 mM valproic acid, 2 uM DAPT, 200 nM Ascorbic Acid, 10 ng/mL BDNF, 10 ng/mL NT-3, 1 μM retinoic acid, 10 uM ISX9, 100×RVC, and 3 μg/mL puromycin. […]
Quantitative PCR (qPCR): Total RNA was extracted from miNs using TRIzol (Invitrogen, USA) following manufacturer protocol. Reverse-transcription was performed with 150-200 ng of RNA with SuperScript IV First Strand Synthesis SuperMix (Invitrogen, USA). qPCR assay was run with SYBR Green PCR Master Mix and plate was run and analyzed on StepOnePlus Real-Time PCR System (AB Applied Biosystems, Germany). […] Expression values were calculated in Excel using the delta Ct method and Z-score calculation.

O=C(NC1CC1)c1cc(-c2cccs2)on1 [ISX9, Isoxazole 9]
Cortical fate (cortical marker expression by qPCR): sufficient to drive the cortical fate
